Reference: the NIST ThermoML archive (doi:10.1021/je400529k)
Values joined by “and” are separate entries in the source; they are usually repeats but may differ in a detail not shown here. Equal values may be shown once. Numbers after ± are expanded uncertainties.

Experiments:
[1] = refractive index (Na D-line) (dimensionless); conditions: 101.33 kPa, Liquid, Standard Abbe refractometry
[2] = 101 kPa, Liquid; for viscosity: Capillary tube (Ostwald / Ubbelohde) method; for mass density: Vibrating tube method
[3] = refractive index (Na D-line) (dimensionless); xn = mol fraction of the nth substance listed; conditions: 101 kPa, Liquid, Standard Abbe refractometry
[4] = xn = mol fraction of the nth substance listed; conditions: 101 kPa, Liquid; for viscosity: Capillary tube (Ostwald / Ubbelohde) method; for mass density: Vibrating tube method

| Compound | refractive index ([1]; 293.15 K) | refractive index ([1]; 303.15 K) | refractive index ([1]; 313.15 K) | viscosity ([2]; 293.15 K) [mPa·s] | mass density ([2]; 293.15 K) [kg/m3] | viscosity ([2]; 298.15 K) [mPa·s] | mass density ([2]; 298.15 K) [kg/m3] | viscosity ([2]; 303.15 K) [mPa·s] | mass density ([2]; 303.15 K) | viscosity ([2]; 308.15 K) [mPa·s] | mass density ([2]; 308.15 K) [kg/m3] | viscosity ([2]; 313.15 K) [mPa·s] | mass density ([2]; 313.15 K) [kg/m3] | viscosity ([2]; 318.15 K) [mPa·s] | mass density ([2]; 318.15 K) [kg/m3] | further results |
| --- | --- | --- | --- | --- | --- | --- | --- | --- | --- | --- | --- | --- | --- | --- | --- | --- |
| CCCCC1CCCCC1 [butylcyclohexane] | 1.4399 ± 0.001 | 1.4354 ± 0.001 | 1.4311 ± 0.001 | 1.302 ± 0.011 | 799.47 ± 0.15 | 1.2 ± 0.011 | 795.71 ± 0.15 | 1.111 ± 0.01 | 791.96 ± 0.15 kg/m3 | 1.032 ± 0.01 | 788.2 ± 0.15 | 0.962 ± 0.01 | 784.43 ± 0.15 | 0.899 ± 0.01 | 780.65 ± 0.15 |  |
| CC1CCC(C)C(C)C1 (stereo not drawn) [1,2,4-trimethylcyclohexane] | 1.4331 ± 0.0011 | 1.4285 ± 0.0011 | 1.424 ± 0.0011 | 0.886 ± 0.012 | 790.8 ± 0.39 | 0.827 ± 0.011 | 786.92 ± 0.39 | 0.774 ± 0.011 | 783.03 ± 0.39 kg/m3 | 0.727 ± 0.011 | 779.13 ± 0.39 | 0.686 ± 0.01 | 775.23 ± 0.39 | 0.648 ± 0.01 | 771.32 ± 0.39 |  |
| C1CCCCC1 [cyclohexane] + C1C[C@@H]2[C@H]3CC[C@H](C3)[C@@H]2C1 |  |  |  |  |  |  |  |  |  |  |  |  |  |  |  | refractive index ([3]; 293.15 K, x2 = 0): 1.4256 ± 0.001; refractive index ([3]; 303.15 K, x2 = 0): 1.4205 ± 0.001; refractive index ([3]; 313.15 K, x2 = 0): 1.4143 ± 0.001; viscosity ([4]; 293.15 K, x2 = 0): 0.977 ± 0.01 mPa·s; mass density ([4]; 293.15 K, x2 = 0): 778.51 ± 0.15 kg/m3; viscosity ([4]; 298.15 K, x2 = 0): 0.898 ± 0.01 mPa·s; mass density ([4]; 298.15 K, x2 = 0): 773.84 ± 0.15 kg/m3; viscosity ([4]; 303.15 K, x2 = 0): 0.828 ± 0.009 mPa·s; mass density ([4]; 303.15 K, x2 = 0): 769.11 ± 0.15 kg/m3; viscosity ([4]; 308.15 K, x2 = 0): 0.766 ± 0.009 mPa·s; mass density ([4]; 308.15 K, x2 = 0): 764.36 ± 0.15 kg/m3; viscosity ([4]; 313.15 K, x2 = 0): 0.712 ± 0.009 mPa·s; mass density ([4]; 313.15 K, x2 = 0): 759.57 ± 0.15 kg/m3; viscosity ([4]; 318.15 K, x2 = 0): 0.664 ± 0.009 mPa·s |
| C1CCCCC1 [cyclohexane] | 1.4256 ± 0.001 | 1.4205 ± 0.001 | 1.4143 ± 0.001 | 0.977 ± 0.01 | 778.51 ± 0.15 | 0.898 ± 0.01 | 773.84 ± 0.15 | 0.828 ± 0.009 | 769.11 ± 0.15 kg/m3 | 0.766 ± 0.009 | 764.36 ± 0.15 | 0.712 ± 0.009 | 759.57 ± 0.15 | 0.664 ± 0.009 |  |  |
| C1C[C@@H]2[C@H]3CC[C@H](C3)[C@@H]2C1 [exo-tetrahydrodicyclopentadiene] + CCC1CCCCC1 |  |  |  |  |  |  |  |  |  |  |  |  |  |  |  | refractive index ([3]; 293.15 K, x1 = 1): 1.4874 ± 0.001; refractive index ([3]; 303.15 K, x1 = 1): 1.4831 ± 0.001; refractive index ([3]; 313.15 K, x1 = 1): 1.4786 ± 0.001; viscosity ([4]; 293.15 K, x1 = 1): 2.992 ± 0.02 mPa·s; mass density ([4]; 293.15 K, x1 = 1): 935.72 ± 0.15 kg/m3; viscosity ([4]; 298.15 K, x1 = 1): 2.71 ± 0.018 mPa·s; mass density ([4]; 298.15 K, x1 = 1): 931.84 ± 0.15 kg/m3; viscosity ([4]; 303.15 K, x1 = 1): 2.467 ± 0.017 mPa·s; mass density ([4]; 303.15 K, x1 = 1): 927.9 ± 0.2 kg/m3; viscosity ([4]; 308.15 K, x1 = 1): 2.255 ± 0.016 mPa·s; mass density ([4]; 308.15 K, x1 = 1): 924.02 ± 0.15 kg/m3; viscosity ([4]; 313.15 K, x1 = 1): 2.069 ± 0.015 mPa·s; mass density ([4]; 313.15 K, x1 = 1): 920.11 ± 0.15 kg/m3; viscosity ([4]; 318.15 K, x1 = 1): 1.907 ± 0.014 mPa·s; mass density ([4]; 318.15 K, x1 = 1): 916.18 ± 0.15 kg/m3 |
| C1C[C@@H]2[C@H]3CC[C@H](C3)[C@@H]2C1 [exo-tetrahydrodicyclopentadiene] + CC1CCC(C)C(C)C1 |  |  |  |  |  |  |  |  |  |  |  |  |  |  |  | refractive index ([3]; 293.15 K, x1 = 1): 1.4874 ± 0.001; refractive index ([3]; 303.15 K, x1 = 1): 1.4831 ± 0.001; refractive index ([3]; 313.15 K, x1 = 1): 1.4786 ± 0.001; viscosity ([4]; 293.15 K, x1 = 1): 2.992 ± 0.02 mPa·s; mass density ([4]; 293.15 K, x1 = 1): 935.72 ± 0.15 kg/m3; viscosity ([4]; 298.15 K, x1 = 1): 2.71 ± 0.018 mPa·s; mass density ([4]; 298.15 K, x1 = 1): 931.84 ± 0.15 kg/m3; viscosity ([4]; 303.15 K, x1 = 1): 2.467 ± 0.017 mPa·s; mass density ([4]; 303.15 K, x1 = 1): 927.94 ± 0.15 kg/m3; viscosity ([4]; 308.15 K, x1 = 1): 2.255 ± 0.016 mPa·s; mass density ([4]; 308.15 K, x1 = 1): 924.02 ± 0.15 kg/m3; viscosity ([4]; 313.15 K, x1 = 1): 2.069 ± 0.015 mPa·s; mass density ([4]; 313.15 K, x1 = 1): 920.11 ± 0.15 kg/m3; viscosity ([4]; 318.15 K, x1 = 1): 1.907 ± 0.014 mPa·s; mass density ([4]; 318.15 K, x1 = 1): 916.18 ± 0.15 kg/m3 |
| CCC1CCCCC1 [ethylcyclohexane] | 1.4319 ± 0.001 | 1.4276 ± 0.001 | 1.4225 ± 0.001 | 0.845 ± 0.009 | 788.02 ± 0.15 | 0.791 ± 0.009 | 784.01 ± 0.15 | 0.743 ± 0.009 | 779.98 ± 0.15 kg/m3 | 0.7 ± 0.009 | 775.93 ± 0.15 | 0.661 ± 0.009 | 771.86 ± 0.15 | 0.626 ± 0.009 | 767.78 ± 0.15 |  |
| C1C[C@@H]2[C@H]3CC[C@H](C3)[C@@H]2C1 [exo-tetrahydrodicyclopentadiene] | 1.4874 ± 0.001 | 1.4831 ± 0.001 | 1.4786 ± 0.001 | 2.992 ± 0.02 | 935.72 ± 0.15 | 2.71 ± 0.018 | 931.84 ± 0.15 | 2.467 ± 0.017 | 927.94 ± 0.15 kg/m3 and 927.9 ± 0.2 kg/m3 | 2.255 ± 0.016 | 924.02 ± 0.15 | 2.069 ± 0.015 | 920.11 ± 0.15 | 1.907 ± 0.014 | 916.18 ± 0.15 |  |
| CC1CCCCC1 [methylcyclohexane] + C1C[C@@H]2[C@H]3CC[C@H](C3)[C@@H]2C1 |  |  |  |  |  |  |  |  |  |  |  |  |  |  |  | refractive index ([3]; 293.15 K, x2 = 0): 1.422 ± 0.001; refractive index ([3]; 303.15 K, x2 = 0): 1.4172 ± 0.001; refractive index ([3]; 313.15 K, x2 = 0): 1.4118 ± 0.001; viscosity ([4]; 293.15 K, x2 = 0): 0.733 ± 0.009 mPa·s; mass density ([4]; 293.15 K, x2 = 0): 769.35 ± 0.15 kg/m3; viscosity ([4]; 298.15 K, x2 = 0): 0.687 ± 0.009 mPa·s; mass density ([4]; 298.15 K, x2 = 0): 765.04 ± 0.15 kg/m3; viscosity ([4]; 303.15 K, x2 = 0): 0.646 ± 0.009 mPa·s; mass density ([4]; 303.15 K, x2 = 0): 760.71 ± 0.15 kg/m3; viscosity ([4]; 308.15 K, x2 = 0): 0.609 ± 0.009 mPa·s; mass density ([4]; 308.15 K, x2 = 0): 756.36 ± 0.15 kg/m3; viscosity ([4]; 313.15 K, x2 = 0): 0.576 ± 0.009 mPa·s; mass density ([4]; 313.15 K, x2 = 0): 751.99 ± 0.16 kg/m3; viscosity ([4]; 318.15 K, x2 = 0): 0.546 ± 0.009 mPa·s; mass density ([4]; 318.15 K, x2 = 0): 747.6 ± 0.16 kg/m3 |
| CC1CCCCC1 [methylcyclohexane] | 1.422 ± 0.001 | 1.4172 ± 0.001 | 1.4118 ± 0.001 | 0.733 ± 0.009 | 769.35 ± 0.15 | 0.687 ± 0.009 | 765.04 ± 0.15 | 0.646 ± 0.009 | 760.71 ± 0.15 kg/m3 | 0.609 ± 0.009 | 756.36 ± 0.15 | 0.576 ± 0.009 | 751.99 ± 0.16 | 0.546 ± 0.009 | 747.6 ± 0.16 |  |
| CCCCC1CCCCC1 [butylcyclohexane] + C1C[C@@H]2[C@H]3CC[C@H](C3)[C@@H]2C1 |  |  |  |  |  |  |  |  |  |  |  |  |  |  |  | refractive index ([3]; 293.15 K, x2 = 0): 1.4399 ± 0.001; refractive index ([3]; 303.15 K, x2 = 0): 1.4354 ± 0.001; refractive index ([3]; 313.15 K, x2 = 0): 1.4311 ± 0.001; viscosity ([4]; 293.15 K, x2 = 0): 1.302 ± 0.011 mPa·s; mass density ([4]; 293.15 K, x2 = 0): 799.47 ± 0.15 kg/m3; viscosity ([4]; 298.15 K, x2 = 0): 1.2 ± 0.011 mPa·s; mass density ([4]; 298.15 K, x2 = 0): 795.71 ± 0.15 kg/m3; viscosity ([4]; 303.15 K, x2 = 0): 1.111 ± 0.01 mPa·s; mass density ([4]; 303.15 K, x2 = 0): 791.96 ± 0.15 kg/m3; viscosity ([4]; 308.15 K, x2 = 0): 1.032 ± 0.01 mPa·s; mass density ([4]; 308.15 K, x2 = 0): 788.2 ± 0.15 kg/m3; viscosity ([4]; 313.15 K, x2 = 0): 0.962 ± 0.01 mPa·s; mass density ([4]; 313.15 K, x2 = 0): 784.43 ± 0.15 kg/m3; viscosity ([4]; 318.15 K, x2 = 0): 0.899 ± 0.01 mPa·s; mass density ([4]; 318.15 K, x2 = 0): 780.65 ± 0.15 kg/m3 |
